Results: ChEMBL document CHEMBL2057107, “Synthesis and evaluation of aplysinopsin analogs as inhibitors of human monoamine oxidase A and B” (Bioorg Med Chem Lett, 2012)

Experiments:
[1] = molecular target: T1, Amine oxidase [flavin-containing] B (Homo sapiens, UniProt P27338); assay: Inhibition of human recombinant MAO-B using kynuramine as substrate preincubated with compound for 15 mins measured after 20 mins by fluorometric analysis
T1 sequence (P27338 whole entry): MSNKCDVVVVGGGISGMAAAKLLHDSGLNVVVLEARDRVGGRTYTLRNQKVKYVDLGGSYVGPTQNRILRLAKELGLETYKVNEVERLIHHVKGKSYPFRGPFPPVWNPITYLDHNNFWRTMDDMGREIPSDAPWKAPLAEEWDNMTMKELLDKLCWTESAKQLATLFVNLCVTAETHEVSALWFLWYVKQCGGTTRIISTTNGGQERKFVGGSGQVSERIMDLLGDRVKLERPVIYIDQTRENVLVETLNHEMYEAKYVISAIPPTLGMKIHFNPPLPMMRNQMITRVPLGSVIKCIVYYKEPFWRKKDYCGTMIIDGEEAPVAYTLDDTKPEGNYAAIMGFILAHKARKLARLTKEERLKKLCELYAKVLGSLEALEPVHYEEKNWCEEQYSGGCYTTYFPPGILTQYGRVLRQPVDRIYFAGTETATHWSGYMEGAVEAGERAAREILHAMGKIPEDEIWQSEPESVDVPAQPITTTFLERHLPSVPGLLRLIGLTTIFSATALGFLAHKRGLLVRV

[2] = organism: Homo sapiens; assay: Selectivity ratio of IC50 for human recombinant MAO-B to IC50 for human recombinant MAO-A
[3] = molecular target: T2, Amine oxidase [flavin-containing] A (Homo sapiens, UniProt P21397); assay: Inhibition of human recombinant MAO-A using kynuramine as substrate preincubated with compound for 15 mins measured after 20 mins by fluorometric analysis
T2 sequence (P21397 whole entry): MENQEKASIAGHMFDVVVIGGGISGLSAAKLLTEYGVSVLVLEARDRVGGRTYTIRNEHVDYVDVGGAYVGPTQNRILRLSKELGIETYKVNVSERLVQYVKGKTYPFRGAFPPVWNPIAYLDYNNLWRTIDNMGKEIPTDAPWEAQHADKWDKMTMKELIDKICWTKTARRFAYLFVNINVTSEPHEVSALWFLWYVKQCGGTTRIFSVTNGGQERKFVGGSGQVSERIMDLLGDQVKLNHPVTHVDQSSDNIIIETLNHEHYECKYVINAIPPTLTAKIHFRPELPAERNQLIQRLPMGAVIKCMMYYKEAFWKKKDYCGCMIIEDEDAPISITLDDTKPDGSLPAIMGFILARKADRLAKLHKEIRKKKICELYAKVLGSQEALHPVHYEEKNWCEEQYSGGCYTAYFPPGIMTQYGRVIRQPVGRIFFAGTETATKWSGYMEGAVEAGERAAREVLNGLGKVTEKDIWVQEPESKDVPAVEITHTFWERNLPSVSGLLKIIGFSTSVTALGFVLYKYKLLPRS

| Compound | IC50 [1] [µM] | Ratio IC50 [2] | IC50 [3] [µM] |
| --- | --- | --- | --- |
| N=C1NC(=O)/C(=C/c2c[nH]c3cccc(Br)c23)N1 | 28.3 | 11.5 | 2.47 |
| C/N=C1\NC(=O)/C(=C/c2c[nH]c3c(Br)cccc23)N1 | 26 | 6.66 | 3.9 |
| CSC1=N/C(=C\c2c[nH]c3ccccc23)C(=O)N1 | 59.3 | 21.3 | 2.78 |
| CN1C(=N)N/C(=C\c2c[nH]c3cccc(Br)c23)C1=O | 37 | 24.4 | 1.52 |
| CN1C(=N)NC(=O)/C1=C\c1c[nH]c2c(Br)cccc12 | 34.3 | 5.62 | 6.11 |
| C/N=C1\NC(=O)/C(=C\c2c[nH]c3ccccc23)N1C [ISOPLYSIN A] | 33.8 | 11 | 3.08 |
| C/N=C1/N/C(=C\c2c[nH]c3cc(Br)ccc23)C(=O)N1C | 25.7 | 22.9 | 1.12 |
| C/N=C1/N/C(=C\c2c[nH]c3cccc(Br)c23)C(=O)N1C | 26.8 | 4.9 | 5.48 |
| CN1C(=N)NC(=O)/C1=C\c1c[nH]c2cccc(Br)c12 | > 100 | – | 26.2 |
| O=C1NC(=S)N/C1=C\c1c[nH]c2ccccc12 | 24.3 | 1.69 | 14.3 |
| CN1C(=N)NC(=O)/C1=C\c1c[nH]c2ccccc12 | 43.2 | 3.55 | 12.2 |
| CN1C(=N)NC(=O)/C1=C\c1c[nH]c2ccc(Br)cc12 | 24.5 | 3.06 | 8 |
| CN1C(=N)N(C)/C(=C/c2c[nH]c3cccc(Br)c23)C1=O | 51.2 | 24.8 | 2.07 |
| CN1C(=N)N/C(=C\c2c[nH]c3ccccc23)C1=O | 34.3 | 17.5 | 1.97 |
| C/N=C1\NC(=O)/C(=C\c2c[nH]c3cccc(Br)c23)N1C | 26.3 | 10.2 | 2.58 |
| C/N=C1/N/C(=C\c2c[nH]c3ccc(Br)cc23)C(=O)N1C | 16.8 | 5.16 | 3.25 |
| N=C1NC(=O)/C(=C/c2c[nH]c3ccccc23)N1 | 33 | 2.59 | 12.8 |
| C/N=C1/N/C(=C\c2c[nH]c3ccccc23)C(=O)N1C | 30.5 | 5.24 | 5.82 |
| C/N=C1\NC(=O)/C(=C/c2c[nH]c3cc(Br)ccc23)N1 | 20.7 | 4.66 | 4.43 |
| CN1C(=N)NC(=O)/C1=C\c1c[nH]c2cc(Br)ccc12 | 35.7 | 5.87 | 6.07 |
| N=C1NC(=O)/C(=C/c2c[nH]c3cc(Br)ccc23)N1 | 25.3 | 6.88 | 3.68 |
| N=C1NC(=O)/C(=C/c2c[nH]c3c(Br)cccc23)N1 | 27.8 | 5.04 | 5.52 |

Now those with a lower IC50 [1], led by results:

| IC50 [1] [µM] | Ratio IC50 [2] | IC50 [3] [µM] | Compound |
| --- | --- | --- | --- |
| 14.3 | 11.9 | 1.2 | CN1C(=N)N/C(=C\c2c[nH]c3c(Br)cccc23)C1=O |
| 12.8 | 6.75 | 1.9 | C/N=C1\NC(=O)/C(=C\c2c[nH]c3c(Br)cccc23)N1C |
| 11.6 | 44.2 | 0.263 | C/N=C1\NC(=O)/C(=C\c2c[nH]c3ccc(Br)cc23)N1C |
| 11.3 | 1.93 | 5.87 | N=C1NC(=O)/C(=C/c2c[nH]c3ccc(Br)cc23)N1 |
| 10 | 290 | 0.035 | CN1C(=N)N(C)/C(=C/c2c[nH]c3ccccc23)C1=O [APLYSINOPSIN] |
| 9.02 | 92.3 | 0.098 | C/N=C1\N(C)C(=O)/C(=C\c2c[nH]c3ccccc23)N1C [METHYLAPLYSINOPSIN] |
| 8.75 | 1.22 | 7.13 | CSC1=NC(=O)/C(=C/c2c[nH]c3ccc(Br)cc23)N1 |
| 7.03 | 3.9 | 1.8 | C/N=C1\NC(=O)/C(=C/c2c[nH]c3cccc(Br)c23)N1 |
| 6 | 0.45 | 13.3 | C/N=C1\NC(=O)/C(=C/c2c[nH]c3ccccc23)N1 |
| 5.22 | 8.37 | 0.623 | C/N=C1\N(C)C(=O)/C(=C\c2c[nH]c3cccc(Br)c23)N1C |
| 4.3 | 13.2 | 0.327 | CN1C(=N)N/C(=C\c2c[nH]c3ccc(Br)cc23)C1=O |
| 4.26 | 3.94 | 1.08 | C/N=C1/N/C(=C\c2c[nH]c3c(Br)cccc23)C(=O)N1C |
| 3.8 | 23 | 0.165 | CN1C(=N)N/C(=C\c2c[nH]c3cc(Br)ccc23)C1=O |
| 3.73 | 5.51 | 0.677 | CSC1=NC(=O)/C(=C/c2c[nH]c3cccc(Br)c23)N1 |
| 3.12 | 60.5 | 0.052 | CN1C(=N)N(C)/C(=C/c2c[nH]c3c(Br)cccc23)C1=O |
| 2.82 | 18.4 | 0.153 | C/N=C1\N(C)C(=O)/C(=C\c2c[nH]c3c(Br)cccc23)N1C |
| 2.7 | 11.4 | 0.236 | CN1C(=N)N(C)/C(=C/c2c[nH]c3ccc(Br)cc23)C1=O |
| 2.67 | 92 | 0.029 | C/N=C1\NC(=O)/C(=C\c2c[nH]c3cc(Br)ccc23)N1C |
| 2.57 | 2.08 | 1.23 | O=C1NC(=S)N/C1=C\c1c[nH]c2ccc(Br)cc12 |
| 2.57 | 1.67 | 1.53 | O=C1NC(=S)N/C1=C\c1c[nH]c2cc(Br)ccc12 |
| 2.43 | 3.88 | 0.627 | CSC1=NC(=O)/C(=C/c2c[nH]c3c(Br)cccc23)N1 |
| 2 | 1.66 | 1.2 | C/N=C1\NC(=O)/C(=C/c2c[nH]c3ccc(Br)cc23)N1 |
| 1.42 | 2.65 | 0.533 | CSC1=NC(=O)/C(=C/c2c[nH]c3cc(Br)ccc23)N1 |
| 1.24 | 2.27 | 0.543 | O=C1NC(=S)N/C1=C\c1c[nH]c2c(Br)cccc12 |
| 0.45 | 1.68 | 0.267 | O=C1NC(=S)N/C1=C\c1c[nH]c2cccc(Br)c12 |
| 0.447 | – | 0.0056 | CN1C(=N)N(C)/C(=C/c2c[nH]c3cc(Br)ccc23)C1=O |
| 0.37 | 4.38 | 0.085 | C/N=C1\N(C)C(=O)/C(=C\c2c[nH]c3ccc(Br)cc23)N1C |
| 0.207 | 11.2 | 0.018 | C/N=C1\N(C)C(=O)/C(=C\c2c[nH]c3cc(Br)ccc23)N1C |
